Data from ChEMBL document CHEMBL1144814, “5-Sulfonyl-benzimidazoles as selective CB2 agonists” (Bioorg Med Chem Lett, 2008).

What was measured:
[1] = Ratio of EC50 for CB2 receptor to EC50 for CB1 receptor (unknow origin)
[2] = Metabolism in human liver microsomes after 15 mins
Cannabinoid receptor 2 = Cannabinoid receptor 2 (Homo sapiens, UniProt P34972); test: Agonist activity at human CB2 receptor; format: functional
Cytochrome P450 1A2 = biological target: T1, Cytochrome P450 1A2 (Homo sapiens, UniProt P05177); test: Inhibition of CYP1A2; format: ADME
T1 sequence (P05177 whole entry): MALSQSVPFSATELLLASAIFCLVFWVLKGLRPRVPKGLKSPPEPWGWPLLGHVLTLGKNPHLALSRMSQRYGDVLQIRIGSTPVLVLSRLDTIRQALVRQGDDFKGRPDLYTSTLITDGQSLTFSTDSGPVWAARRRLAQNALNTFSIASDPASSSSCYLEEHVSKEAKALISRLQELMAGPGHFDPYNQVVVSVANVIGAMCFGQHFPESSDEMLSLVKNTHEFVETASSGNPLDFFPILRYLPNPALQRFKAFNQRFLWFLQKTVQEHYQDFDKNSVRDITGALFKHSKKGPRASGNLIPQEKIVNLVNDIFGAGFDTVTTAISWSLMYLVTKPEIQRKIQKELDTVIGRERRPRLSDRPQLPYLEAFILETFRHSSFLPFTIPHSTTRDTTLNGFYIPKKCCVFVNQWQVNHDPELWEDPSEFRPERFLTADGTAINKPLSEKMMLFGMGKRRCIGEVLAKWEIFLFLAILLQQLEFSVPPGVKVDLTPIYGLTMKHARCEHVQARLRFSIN

[3] = Solubility at pH 7.4; format: physicochemical; details: buffer
Cytochrome P450 2C9 = Cytochrome P450 2C9 (Homo sapiens, UniProt P11712); test: Inhibition of CYP2C9; format: ADME
Cytochrome P450 2C19 = Cytochrome P450 2C19 (Homo sapiens, UniProt P33261); test: Inhibition of CYP2C19; format: ADME
Cytochrome P450 3A4 = Cytochrome P450 3A4 (Homo sapiens, UniProt P08684); test: Inhibition of CYP3A4; format: ADME
[4] = Solubility at pH 4; format: physicochemical; details: buffer
Cytochrome P450 2D6 = Cytochrome P450 2D6 (Homo sapiens, UniProt P10635); test: Inhibition of CYP2D6; format: ADME
[5] = biological target: T2, Cannabinoid receptor 2 (Rattus norvegicus) (UniProt Q9QZN9); test: Agonist activity at rat CB2 receptor; format: functional
T2 sequence (whole entry): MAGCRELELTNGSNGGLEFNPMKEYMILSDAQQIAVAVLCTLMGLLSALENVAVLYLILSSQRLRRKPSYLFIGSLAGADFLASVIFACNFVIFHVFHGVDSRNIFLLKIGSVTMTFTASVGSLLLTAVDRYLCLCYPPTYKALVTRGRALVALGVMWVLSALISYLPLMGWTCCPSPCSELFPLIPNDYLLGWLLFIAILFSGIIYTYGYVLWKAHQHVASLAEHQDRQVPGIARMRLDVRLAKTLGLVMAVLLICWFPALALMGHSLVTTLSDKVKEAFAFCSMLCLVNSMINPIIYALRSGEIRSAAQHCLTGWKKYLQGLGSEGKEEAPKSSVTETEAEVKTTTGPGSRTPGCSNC

CYP2C19 = CYP2C19 (Homo sapiens, UniProt P33261); test: Inhibition of CYP2C19 at 10 uM; format: ADME
[6] = Tmax in Sprague-Dawley rat at 10 mg/kg, po; format: ADME, organism-based; design: dose 10 mg/kg, route oral; details: in vivo
[7] = Oral bioavailability in Sprague-Dawley rat at 10 mg/kg; format: ADME, organism-based; details: in vivo
[8] = Fraction of dose absorbed in Sprague-Dawley rat at 10 mg/kg, po; format: ADME, organism-based; design: dose 10 mg/kg, route oral; details: in vivo, read-out: Fabs
[9] = Ratio of drug level in brain to plasma in Sprague-Dawley rat at 10 mg/kg, po; format: ADME, organism-based; design: dose 10 mg/kg, route oral; details: read-out: BPR
Rattus norvegicus = test: Induction of CB1-mediated side effects in Sprague-Dawley rat at 40 mg/kg, po by tetrad test; format: organism-based; design: dose 40 mg/kg, route oral; details: in vivo
[10] = Cmax in Sprague-Dawley rat at 10 mg/kg, po; format: ADME, organism-based; design: dose 10 mg/kg, route oral; details: in vivo
CYP2C9 = CYP2C9 (Homo sapiens, UniProt P11712); test: Inhibition of CYP2C9 at 10 uM; format: ADME
[11] = Half life in Sprague-Dawley rat at 10 mg/kg, po; format: ADME, organism-based; design: dose 10 mg/kg, route oral; details: in vivo
[12] = AUC (0 to infinity) in Sprague-Dawley rat at 10 mg/kg, po; format: ADME, organism-based; design: time infinity, dose 10 mg/kg, route oral; details: plasma

Sequence of Cannabinoid receptor 2 (P34972 whole entry): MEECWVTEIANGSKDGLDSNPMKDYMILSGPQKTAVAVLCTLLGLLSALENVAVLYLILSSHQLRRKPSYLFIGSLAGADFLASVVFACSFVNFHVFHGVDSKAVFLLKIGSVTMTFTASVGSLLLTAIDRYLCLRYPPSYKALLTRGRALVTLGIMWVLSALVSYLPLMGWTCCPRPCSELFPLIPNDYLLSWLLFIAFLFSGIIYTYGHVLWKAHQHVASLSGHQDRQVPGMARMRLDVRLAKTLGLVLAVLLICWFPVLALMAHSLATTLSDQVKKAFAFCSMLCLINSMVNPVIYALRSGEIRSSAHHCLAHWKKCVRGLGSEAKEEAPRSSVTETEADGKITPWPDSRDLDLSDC
Sequence of Cytochrome P450 2C19 (P33261 whole entry): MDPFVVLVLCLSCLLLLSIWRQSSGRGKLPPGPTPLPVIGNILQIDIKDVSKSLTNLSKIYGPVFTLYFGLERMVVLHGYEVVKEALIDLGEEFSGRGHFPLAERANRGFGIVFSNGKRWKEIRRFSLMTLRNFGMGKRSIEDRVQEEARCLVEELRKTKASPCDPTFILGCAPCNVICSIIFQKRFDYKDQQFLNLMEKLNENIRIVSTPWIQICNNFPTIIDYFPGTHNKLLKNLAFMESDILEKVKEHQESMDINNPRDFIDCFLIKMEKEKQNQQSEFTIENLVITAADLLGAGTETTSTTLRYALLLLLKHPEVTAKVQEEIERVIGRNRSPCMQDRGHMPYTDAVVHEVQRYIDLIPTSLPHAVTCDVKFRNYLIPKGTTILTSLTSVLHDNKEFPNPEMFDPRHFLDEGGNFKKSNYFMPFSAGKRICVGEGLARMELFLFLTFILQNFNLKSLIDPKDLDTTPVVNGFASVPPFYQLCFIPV
Sequence of CYP2C19 (P33261 whole entry): as above
Sequence of Cytochrome P450 2D6 (P10635 whole entry): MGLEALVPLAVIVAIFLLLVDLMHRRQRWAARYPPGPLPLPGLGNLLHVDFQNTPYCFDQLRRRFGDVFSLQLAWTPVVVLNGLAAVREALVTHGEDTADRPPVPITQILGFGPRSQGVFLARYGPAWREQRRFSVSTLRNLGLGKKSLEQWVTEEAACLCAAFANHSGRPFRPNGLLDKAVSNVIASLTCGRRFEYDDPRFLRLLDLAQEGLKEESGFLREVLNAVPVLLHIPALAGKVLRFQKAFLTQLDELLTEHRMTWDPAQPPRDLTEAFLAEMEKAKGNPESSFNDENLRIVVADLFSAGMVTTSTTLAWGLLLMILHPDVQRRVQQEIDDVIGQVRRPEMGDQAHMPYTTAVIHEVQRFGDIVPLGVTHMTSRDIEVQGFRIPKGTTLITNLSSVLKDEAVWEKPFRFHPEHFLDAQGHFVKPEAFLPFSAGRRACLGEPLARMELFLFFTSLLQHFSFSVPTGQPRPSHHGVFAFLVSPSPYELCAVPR
Sequence of Cytochrome P450 3A4 (P08684 whole entry): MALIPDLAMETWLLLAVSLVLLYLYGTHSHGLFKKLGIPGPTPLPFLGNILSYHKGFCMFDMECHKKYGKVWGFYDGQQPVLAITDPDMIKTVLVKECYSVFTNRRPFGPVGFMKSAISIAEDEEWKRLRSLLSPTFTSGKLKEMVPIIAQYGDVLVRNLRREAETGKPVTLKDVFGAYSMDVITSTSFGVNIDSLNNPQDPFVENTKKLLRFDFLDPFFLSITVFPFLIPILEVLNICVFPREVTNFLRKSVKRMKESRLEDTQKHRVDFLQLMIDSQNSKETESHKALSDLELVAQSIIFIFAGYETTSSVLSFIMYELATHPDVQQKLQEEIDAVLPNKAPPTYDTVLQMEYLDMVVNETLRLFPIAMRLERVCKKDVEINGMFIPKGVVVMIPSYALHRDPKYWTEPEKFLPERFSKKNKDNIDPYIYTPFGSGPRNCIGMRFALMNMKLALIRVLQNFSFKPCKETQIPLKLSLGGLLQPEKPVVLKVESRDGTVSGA
Sequence of Cytochrome P450 2C9 (P11712 whole entry): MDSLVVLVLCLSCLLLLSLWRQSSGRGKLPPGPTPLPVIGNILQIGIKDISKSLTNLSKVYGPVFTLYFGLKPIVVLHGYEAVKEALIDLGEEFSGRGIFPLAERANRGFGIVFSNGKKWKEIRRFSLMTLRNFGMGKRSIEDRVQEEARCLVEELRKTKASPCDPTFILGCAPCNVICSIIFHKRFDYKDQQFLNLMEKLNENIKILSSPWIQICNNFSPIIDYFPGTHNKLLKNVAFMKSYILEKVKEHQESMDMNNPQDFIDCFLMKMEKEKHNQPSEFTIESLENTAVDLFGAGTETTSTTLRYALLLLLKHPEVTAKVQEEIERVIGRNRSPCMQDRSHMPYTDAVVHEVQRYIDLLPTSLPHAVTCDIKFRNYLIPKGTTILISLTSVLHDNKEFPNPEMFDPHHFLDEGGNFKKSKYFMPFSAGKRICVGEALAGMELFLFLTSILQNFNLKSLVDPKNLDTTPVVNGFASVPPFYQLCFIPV
Sequence of CYP2C9 (P11712 whole entry): as above

## CC(C)(C)c1nc2cc(S(=O)(=O)Cc3ccc(C#N)cc3)ccc2n1CC1CCCCC1
[1]
  Ratio EC50: 436
[2]
  metabolized at 0.25 h: 73%
Cannabinoid receptor 2
  EC50: 0.5 nM

## CC(C)(C)c1nc2cc(S(=O)(=O)c3ccc(C#N)cc3)ccc2n1CC1CCOCC1
[1]
  Ratio EC50: 191
[2]
  metabolized at 0.25 h: 42%
Cannabinoid receptor 2
  EC50: 0.6 nM

## CCOc1ccc(Cc2nc3cc(S(=O)(=O)CC)ccc3n2CC2CCOCC2)cc1
[1]
  Ratio EC50: 1600
[2]
  metabolized at 0.25 h: 34%
Cannabinoid receptor 2
  EC50: 4 nM
  Efficacy: 44%

## [O-][S+](Cc1ccc(Cl)cc1)c1cc2nc(C3CCCCC3)[nH]c2cc1Cl (configuration not stated)
Cytochrome P450 1A2
  Inhibition: < 50%
[3]
  solubility: > 20 µM
[1]
  Ratio EC50: > 1000
Cytochrome P450 2C9
  Inhibition: < 50%
Cytochrome P450 2C19
  Inhibition: < 50%
Cytochrome P450 3A4
  Inhibition: < 50%
[4]
  solubility: > 20 µM
Cytochrome P450 2D6
  Inhibition: < 50%
[2]
  metabolized at 0.25 h: < 50%
Cannabinoid receptor 2
  EC50: < 1 nM
  Efficacy: > 100%

## CC(=O)N(C)Cc1ccc(S(=O)(=O)c2ccc3c(c2)nc(C(C)(C)C)n3CC2CCOCC2)cc1
[1]
  Ratio EC50: 550
[2]
  metabolized at 0.25 h: 50%
Cannabinoid receptor 2
  EC50: 1.6 nM

## CC(C)(C)c1nc2cc(S(=O)(=O)c3ccccc3)ccc2n1CC1CCCCC1
[1]
  Ratio EC50: 14
[2]
  metabolized at 0.25 h: 23%
Cannabinoid receptor 2
  EC50: 1.2 nM

## CC(=O)NCCCS(=O)(=O)c1ccc2c(c1)nc(C(C)(C)C)n2CC1CCOCC1
[1]
  Ratio EC50: 109
Cannabinoid receptor 2
  EC50: 100 nM

## CC(C)(C)c1nc2cc(S(=O)(=O)CC3CC3)ccc2n1CC1CCOCC1
[1]
  Ratio EC50: 121
[2]
  metabolized at 0.25 h: 14%
Cannabinoid receptor 2
  EC50: 1.3 nM

## CCS(=O)(=O)c1ccc2c(c1)nc(CC(C)C)n2CC1CCOCC1
[5]
  Efficacy: 43%
Cannabinoid receptor 2
  EC50: 4 nM
  Efficacy: 101%

## CCOc1ccc(Cc2nc3cc(SCC)c(Cl)cc3[nH]2)cc1
Cannabinoid receptor 2
  EC50: 2000 nM

## CCOc1cc(S(=O)(=O)c2ccc3c(c2)nc(C(C)(C)C)n3CC2CCOCC2)ccn1
CYP2C19
  inhibition at 10 µM: 76%
[6]
  Tmax: 0.5 h
[7]
  bioavailability: 43%
[1]
  Ratio EC50: 4270
[8]
  Fa: ≤ 1%
[9]
  Kp: 0.1
Rattus norvegicus
  Activity: Non-toxic
[10]
  Cmax: 731 ng/mL
CYP2C9
  inhibition at 10 µM: 94%
[2]
  metabolized at 0.25 h: 48%
[11]
  half-life: 3.4 h
Cannabinoid receptor 2
  EC50: 0.3 nM
[12]
  AUC(0-inf): 2500 ng·h/mL

## CC(C)(C)c1nc2cc(S(=O)(=O)C(F)(F)c3ccc(C#N)cc3)ccc2n1CC1CCCCC1
[1]
  Ratio EC50: 62
[2]
  metabolized at 0.25 h: 28%
Cannabinoid receptor 2
  EC50: 1.6 nM

## CCOc1ccc(Cc2nc3cc(S(=O)(=O)CC)c(Cl)cc3n2CC2CCOCC2)cc1
[1]
  Ratio EC50: 537
[2]
  metabolized at 0.25 h: 66%
Cannabinoid receptor 2
  EC50: 20 nM

## CCS(=O)(=O)c1ccc2c(c1)nc(C(C)(C)C)n2CC1CCOCC1
[1]
  Ratio EC50: 551
[2]
  metabolized at 0.25 h: 0%
[5]
  Efficacy: 102%
Cannabinoid receptor 2
  EC50: 1.2 nM
  Efficacy: 120%

## CC(C)(C)c1nc2cc(S(=O)(=O)CCCC(F)(F)F)ccc2n1CC1CCOCC1
[1]
  Ratio EC50: 285
[2]
  metabolized at 0.25 h: 36%
Cannabinoid receptor 2
  EC50: 1 nM

## CC(C)(C)c1nc2cc(S(=O)(=O)CCC#N)ccc2n1CC1CCOCC1
[1]
  Ratio EC50: 2110
[2]
  metabolized at 0.25 h: 24%
Cannabinoid receptor 2
  EC50: 4 nM

## CCS(=O)(=O)c1ccc2c(c1)nc(C(C)(C)C)n2CC1CCCCC1
Cannabinoid receptor 2
  EC50: 0.8 nM
  Efficacy: 104%

## CC(C)(C)c1nc2cc(S(=O)(=O)CCN)ccc2n1CC1CCOCC1
[1]
  Ratio EC50: 912
Cannabinoid receptor 2
  EC50: 10 nM

## CCS(=O)(=O)c1ccc2c(c1)nc(C(C)C)n2CC1CCCCC1
[5]
  Efficacy: 99%
Cannabinoid receptor 2
  EC50: 1.6 nM
  Efficacy: 101%

## CCS(=O)(=O)c1ccc2c(c1)nc(C)n2CC1CCCCC1
Cannabinoid receptor 2
  EC50: 31 nM

## CC(C)(C)c1nc2cc(S(=O)(=O)c3cccc(C#N)c3)ccc2n1CC1CCOCC1
[1]
  Ratio EC50: 1460
[2]
  metabolized at 0.25 h: 61%
Cannabinoid receptor 2
  EC50: 0.5 nM

## Cc1cc(S(=O)(=O)c2ccc3c(c2)nc(C(C)(C)C)n3CC2CCOCC2)ccn1
[1]
  Ratio EC50: 1620
[2]
  metabolized at 0.25 h: 40%
Cannabinoid receptor 2
  EC50: 1.3 nM

## CCOc1ccc(Cc2nc3cc([S+]([O-])CC)c(Cl)cc3n2CC2CCOCC2)cc1 (configuration not stated)
[1]
  Ratio EC50: 484
[2]
  metabolized at 0.25 h: 95%
Cannabinoid receptor 2
  EC50: 20 nM

## CCOc1ccc(Cc2nc3cc([S+]([O-])CC)c(Cl)cc3n2CC2CCCCC2)cc1 (configuration not stated)
[1]
  Ratio EC50: 8.2
Cannabinoid receptor 2
  EC50: 6.3 nM

## CC(C)(C)c1nc2cc(S(=O)(=O)c3nccs3)ccc2n1CC1CCOCC1
[1]
  Ratio EC50: 4
[2]
  metabolized at 0.25 h: 25%
Cannabinoid receptor 2
  EC50: 0.8 nM

## CC(C)(C)c1nc2cc(S(=O)(=O)c3c(Cl)cccc3Cl)ccc2n1CC1CCOCC1
[1]
  Ratio EC50: 292
[2]
  metabolized at 0.25 h: 96%
Cannabinoid receptor 2
  EC50: 0.4 nM

## CC(C)(C)c1nc2cc(S(=O)(=O)CCO)ccc2n1CC1CCOCC1
[1]
  Ratio EC50: 3850
[2]
  metabolized at 0.25 h: 6%
Cannabinoid receptor 2
  EC50: 2.5 nM

## CCS(=O)(=O)c1ccc2c(c1)nc(C1CC1)n2CC1CCOCC1
[5]
  Efficacy: 0%
Cannabinoid receptor 2
  EC50: 4 nM
  Efficacy: 109%

## CC(C)(C)c1nc2cc(S(=O)(=O)c3ccnc(F)c3)ccc2n1CC1CCOCC1
[1]
  Ratio EC50: 495
[2]
  metabolized at 0.25 h: 40%
Cannabinoid receptor 2
  EC50: 0.8 nM

## CC(C)(C)c1nc2cc(S(=O)(=O)c3ccc(CN)cc3)ccc2n1CC1CCOCC1
[1]
  Ratio EC50: 363
Cannabinoid receptor 2
  EC50: 5 nM

## CCOc1ccc(Cc2nc3cc(SCC)c(Cl)cc3n2CC2CCCCC2)cc1
[1]
  Ratio EC50: 1.2
[2]
  metabolized at 0.25 h: 85%
Cannabinoid receptor 2
  EC50: 125 nM

## CC(C)(C)c1nc2cc(S(=O)(=O)c3ccco3)ccc2n1CC1CCOCC1
[1]
  Ratio EC50: 40
Cannabinoid receptor 2
  EC50: 0.4 nM

## CCOc1ccc(Cc2nc3cc(Cl)c([S+]([O-])CC)cc3[nH]2)cc1 (configuration not stated)
Cannabinoid receptor 2
  EC50: > 10000 nM

## CCOc1ccc(Cc2nc3cc(S(=O)(=O)CC)c(Cl)cc3n2CC2CCCCC2)cc1
[1]
  Ratio EC50: 50
[2]
  metabolized at 0.25 h: 74%
Cannabinoid receptor 2
  EC50: 5 nM

## CC(C)(C)c1nc2cc(S(=O)(=O)CCC(F)(F)F)ccc2n1CC1CCOCC1
[1]
  Ratio EC50: 394
[2]
  metabolized at 0.25 h: 13%
Cannabinoid receptor 2
  EC50: 1.3 nM

## CC(C)(C)c1nc2cc(S(=O)(=O)c3ccncc3)ccc2n1CC1CCOCC1
[1]
  Ratio EC50: 215
[2]
  metabolized at 0.25 h: 28%
Cannabinoid receptor 2
  EC50: 1.2 nM

## CCOc1ccc(Cc2nc3cc(SCC)c(Cl)cc3n2CC2CCOCC2)cc1
[1]
  Ratio EC50: 75
[2]
  metabolized at 0.25 h: 98%
Cannabinoid receptor 2
  EC50: 4 nM

## CCNCCCS(=O)(=O)c1ccc2c(c1)nc(C(C)(C)C)n2CC1CCOCC1
[1]
  Ratio EC50: 4.3
Cannabinoid receptor 2
  EC50: 158 nM
